Where only a bound is given, the exact number is not on record here.

The experiment has as its target T1, PERK (Homo sapiens, UniProt Q9NZJ5).
T1 sequence (Q9NZJ5 30-1116): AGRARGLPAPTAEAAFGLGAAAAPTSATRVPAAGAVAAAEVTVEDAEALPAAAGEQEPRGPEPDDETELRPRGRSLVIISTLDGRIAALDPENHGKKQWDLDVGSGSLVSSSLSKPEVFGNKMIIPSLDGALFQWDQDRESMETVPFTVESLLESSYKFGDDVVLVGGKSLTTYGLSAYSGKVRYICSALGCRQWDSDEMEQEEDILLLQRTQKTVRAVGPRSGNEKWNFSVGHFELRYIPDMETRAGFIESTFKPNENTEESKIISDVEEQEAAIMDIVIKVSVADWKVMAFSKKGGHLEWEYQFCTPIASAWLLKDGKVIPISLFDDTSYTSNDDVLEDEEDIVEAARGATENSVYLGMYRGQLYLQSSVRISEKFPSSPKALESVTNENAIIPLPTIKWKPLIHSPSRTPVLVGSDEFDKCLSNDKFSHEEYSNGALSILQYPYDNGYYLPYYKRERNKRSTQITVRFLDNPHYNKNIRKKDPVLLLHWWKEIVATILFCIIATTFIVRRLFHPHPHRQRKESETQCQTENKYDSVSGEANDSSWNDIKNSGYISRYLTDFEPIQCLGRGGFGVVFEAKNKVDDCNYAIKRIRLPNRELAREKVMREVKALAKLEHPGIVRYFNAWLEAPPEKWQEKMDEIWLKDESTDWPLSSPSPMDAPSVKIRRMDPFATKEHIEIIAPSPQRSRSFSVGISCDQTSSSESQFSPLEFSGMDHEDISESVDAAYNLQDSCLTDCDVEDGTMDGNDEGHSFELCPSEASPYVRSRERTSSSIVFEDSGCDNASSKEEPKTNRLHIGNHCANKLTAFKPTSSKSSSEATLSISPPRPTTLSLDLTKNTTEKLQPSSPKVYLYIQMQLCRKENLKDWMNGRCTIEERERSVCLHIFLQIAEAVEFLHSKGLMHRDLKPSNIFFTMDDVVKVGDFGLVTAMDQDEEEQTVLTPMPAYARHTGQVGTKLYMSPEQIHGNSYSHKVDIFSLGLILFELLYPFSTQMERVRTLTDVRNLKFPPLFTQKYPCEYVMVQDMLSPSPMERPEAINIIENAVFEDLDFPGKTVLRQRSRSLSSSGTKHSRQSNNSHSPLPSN
Nature of the experiment: PERK enzyme assay (HTRF). In kind it is biochemical. Particulars: PERK Enzyme (500 μM ATP) IC50; at least one experimental run; read-out: PERK Activity. The procedure, abridged: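 HTRF read-out after 2 h of EDTA-quenched reactions, detecting phospho-eIF2α with Eu/APC reagents, gave IC50 values. Reaction: 0.75 nM GST-PERK, 30–60 min compound pre-incubation (max 1% DMSO), then 60 min with 40 nM biotin-eIF2α and 500 μM ATP, HEPES pH 7.5 buffer.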
Take `Cc1nc(N)c2c(-c3ccc(N4CC(c5ccc(F)cc5F)N(C)C4=O)cc3F)cn(C3CC3)c2n1` (single isomer, unassigned) [Example 8, 1-(4-(4-amino-7-cyclopropyl-2-methyl-7H-pyrrolo[2,3-d]pyrimidin-5-yl)-3-fluorophenyl)-4-(2,4-difluorophenyl)-3-methylimidazolidin-2-one]: the IC50 was below 100 nM.

`Cc1nc(N)c2c(-c3ccc(N4CC(c5cc(F)ccc5F)N(C)C4=O)cc3F)cn(C)c2n1` (single isomer, unassigned) [Example 38, 1-(4-(4-amino-2,7-dimethyl-7H-pyrrolo[2,3-d]pyrimidin-5-yl)-3-fluorophenyl)-4-(2,5-difluorophenyl)-3-methylimidazolidin-2-one]: the IC50 is above 1000 nM. On to `CN1C(=O)N(c2ccc(-c3cn(C)c4ncnc(N)c34)c(F)c2)CC1c1cccc(Cl)c1F` (centres unmarked) [Example 26, 1-(4-(4-amino-7-methyl-7H-pyrrolo[2,3-d]pyrimidin-5-yl)-3-fluorophenyl)-4-(3-chloro-2-fluorophenyl)-3-methylimidazolidin-2-one], for which the IC50 is 100 to 1000 nM.

Take `CN1C(=O)N(c2ccc(-c3cn(C)c4ncnc(N)c34)c(F)c2)CC1c1cccc(OC(F)F)c1` (centres unmarked) [Example 73, 1-(4-(4-amino-7-methyl-7H-pyrrolo[2,3-d]pyrimidin-5-yl)-3-fluorophenyl)-4-(3-(difluoromethoxy)phenyl)-3-methylimidazolidin-2-one]: the IC50 lay in the range of 100 to 1000 nM. The same measure for `CN1C(=O)N(c2ccc(-c3cn(C)c4ncnc(N)c34)c(F)c2)CC1c1ccccn1` (centres unmarked) [Example 7, 1-(4-(4-amino-7-methyl-7H-pyrrolo[2,3-d]pyrimidin-5-yl)-3-fluorophenyl)-3-methyl-4-(pyridin-2-yl)imidazolidin-2-one]: below 100 nM; for `CN1C(=O)N(c2ccc(-c3cn(C4CC4)c4ncnc(N)c34)c(F)c2)CC1c1cccc(Cl)c1` (centres unmarked) [Example 148, 1-(4-(4-amino-7-cyclopropyl-7H-pyrrolo[2,3-d]pyrimidin-5-yl)-3-fluorophenyl)-4-(3-chlorophenyl)-3-methylimidazolidin-2-one]: below 100 nM.

Regarding `CN1C(=O)N(c2ccc(-c3cn(C4CC4)c4ncnc(N)c34)c(F)c2)CC1c1cccc(F)c1` (single isomer, unassigned) [Example 126, 1-(4-(4-amino-7-cyclopropyl-7H-pyrrolo[2,3-d]pyrimidin-5-yl)-3-fluorophenyl)-4-(3-fluorophenyl)-3-methylimidazolidin-2-one], the IC50 was below 100 nM. As to `Cn1cc(-c2ccc(N3CC(c4cc(F)cc(F)c4)CC3=O)cc2)c2c(N)ncnc21` (centres unmarked) [Example 29, 1-(4-(4-amino-7-methyl-7H-pyrrolo[2,3-d]pyrimidin-5-yl)phenyl)-4-(3,5-difluorophenyl)pyrrolidin-2-one], the IC50 was in the range of 100 to 1000 nM. For the compound `CN1C(=O)N(c2ccc(-c3cn(C)c4ncnc(N)c34)c(F)c2)CC1c1cccc(F)c1F` (single isomer, unassigned) [Example 77, 1-(4-(4-amino-7-methyl-7H-pyrrolo[2,3-d]pyrimidin-5-yl)-3-fluorophenyl)-4-(2,3-difluorophenyl)-3-methylimidazolidin-2-one], the IC50 is below 100 nM. The value for `Cc1nc(N)c2c(-c3ccc(N4CC(c5c(F)ccc(F)c5F)N(C)C4=O)cc3F)cn(C)c2n1` (centres unmarked) [Example 139, 1-(4-(4-amino-2,7-dimethyl-7H-pyrrolo[2,3-d]pyrimidin-5-yl)-3-fluorophenyl)-3-methyl-4-(2,3,6-trifluorophenyl)imidazolidin-2-one] was 100 to 1000 nM; that for `CN1C(=O)N(c2ccc(-c3cn(C)c4ncnc(N)c34)c(F)c2)CC1c1ccc(F)cc1F` (single isomer, unassigned) [Example 47, 1-(4-(4-amino-7-methyl-7H-pyrrolo[2,3-d]pyrimidin-5-yl)-3-fluorophenyl)-4-(2,4-difluorophenyl)-3-methylimidazolidin-2-one] was above 1000 nM.

Turning to `CN1C(=O)N(c2ccc(-c3cn(C)c4ncnc(N)c34)c(F)c2)CC1C1CCCCC1` (centres unmarked) [Example 58, 1-(4-(4-amino-7-methyl-7H-pyrrolo[2,3-d]pyrimidin-5-yl)-3-fluorophenyl)-4-cyclohexyl-3-methylimidazolidin-2-one], the IC50 was below 100 nM. The value for `CN1C(=O)N(c2ccc(-c3cn(CC(F)(F)F)c4ncnc(N)c34)c(F)c2)CC1c1ccc(F)cc1F` (centres unmarked) [Example 82, 1-(4-(4-amino-7-(2,2,2-trifluoroethyl)-7H-pyrrolo[2,3-d]pyrimidin-5-yl)-3-fluorophenyl)-4-(2,4-difluorophenyl)-3-methylimidazolidin-2-one] was 100 to 1000 nM; that for `Cc1nc(N)c2c(-c3ccc(N4CC(c5c(F)cc(F)cc5F)N(C)C4=O)cc3F)cn(C)c2n1` (single isomer, unassigned) [Example 71, 1-(4-(4-amino-2,7-dimethyl-7H-pyrrolo[2,3-d]pyrimidin-5-yl)-3-fluorophenyl)-3-methyl-4-(2,4,6-trifluorophenyl)imidazolidin-2-one] was 100 to 1000 nM. On to `Cn1cc(-c2ccc(N3CC(c4ccc(F)cc4F)CC3=O)cc2F)c2c(N)ncnc21` (centres unmarked) [Example 34, 1-(4-(4-amino-7-methyl-7H-pyrrolo[2,3-d]pyrimidin-5-yl)-3-fluorophenyl)-4-(2,4-difluorophenyl)pyrrolidin-2-one], for which the IC50 lay in the range of 100 to 1000 nM. On to `CN1C(=O)N(c2ccc(-c3cn(C)c4ncnc(N)c34)c(F)c2)CC1c1cc(F)c(F)cc1F` (single isomer, unassigned) [Example 158, 1-(4-(4-amino-7-methyl-7H-pyrrolo[2,3-d]pyrimidin-5-yl)-3-fluorophenyl)-3-methyl-4-(2,4,5-trifluorophenyl)imidazolidin-2-one], for which the IC50 is below 100 nM. As for `CCN1C(=O)N(c2ccc(-c3cn(C)c4nc(C)nc(N)c34)c(F)c2)CC1c1cc(F)ccc1F` (single isomer, unassigned) [Example 45, 1-(4-(4-amino-2,7-dimethyl-7H-pyrrolo[2,3-d]pyrimidin-5-yl)-3-fluorophenyl)-4-(2,5-difluorophenyl)-3-ethylimidazolidin-2-one], the IC50 is above 1000 nM. Turning to `Cc1nc(N)c2c(-c3ccc(N4CC(c5ccc(F)cc5F)N(C)C4=O)cc3F)cn(C3CC3)c2n1` (single isomer, unassigned) [Example 9, 1-(4-(4-amino-7-cyclopropyl-2-methyl-7H-pyrrolo[2,3-d]pyrimidin-5-yl)-3-fluorophenyl)-4-(2,4-difluorophenyl)-3-methylimidazolidin-2-one], the IC50 was above 1000 nM.

Consider `CCN1C(=O)N(c2ccc(-c3cn(C)c4ncnc(N)c34)c(F)c2)CC1c1ccc(F)cc1` (centres unmarked) [Example 57], for which the IC50 was below 100 nM. `CN1C(=O)N(c2ccc(-c3cn(C)c4ncnc(N)c34)c(F)c2)CC1c1ccc(F)c(Cl)c1` (centres unmarked) [Example 131, 1-(4-(4-amino-7-methyl-7H-pyrrolo[2,3-d]pyrimidin-5-yl)-3-fluorophenyl)-4-(3-chloro-4-fluorophenyl)-3-methylimidazolidin-2-one]: the IC50 was below 100 nM. For the compound `CN1C(=O)N(c2ccc(-c3cn(C)c4ncnc(N)c34)c(F)c2)CC1c1ccc(F)cc1F` (centres unmarked) [Example 24, 1-(4-(4-amino-7-methyl-7H-pyrrolo[2,3-d]pyrimidin-5-yl)-3-fluorophenyl)-4-(2,4-difluorophenyl)-3-methylimidazolidin-2-one], the IC50 is 100 to 1000 nM. Turning to `CN1C(=O)N(c2ccc(-c3cn(C4CC4)c4ncnc(N)c34)c(F)c2)CC1c1ccc(F)c(Cl)c1` (single isomer, unassigned) [Example 134, 1-(4-(4-amino-7-cyclopropyl-7H-pyrrolo[2,3-d]pyrimidin-5-yl)-3-fluorophenyl)-4-(3-chloro-4-fluorophenyl)-3-methylimidazolidin-2-one], the IC50 is below 100 nM.

In the case of `Cc1nc(N)c2c(-c3ccc(N4CC(c5ccc(F)cc5F)N(C)C4=O)cc3F)nn(C)c2n1` (single isomer, unassigned) [Example 12, 1-(4-(4-amino-1,6-dimethyl-1H-pyrazolo[3,4-d]pyrimidin-3-yl)-3-fluorophenyl)-4-(2,4-difluorophenyl)-3-methylimidazolidin-2-one], the IC50 is below 100 nM.

Source of the values: US20180237441A1, “Chemical Compounds” (GlaxoSmithKline Intellectual Property (No.2) Limited, priority 2015, published 2018).
